Results taken from paper PMC3037272 (Journal of medicinal chemistry, 2010).

Legend:
[1] = target: T1, 26S proteasome β1 subunit (Oryctolagus cuniculus, UniProt A0A5F9DQW2); assay type: biochemical, rabbit
T1 sequence (A0A5F9DQW2 1-212): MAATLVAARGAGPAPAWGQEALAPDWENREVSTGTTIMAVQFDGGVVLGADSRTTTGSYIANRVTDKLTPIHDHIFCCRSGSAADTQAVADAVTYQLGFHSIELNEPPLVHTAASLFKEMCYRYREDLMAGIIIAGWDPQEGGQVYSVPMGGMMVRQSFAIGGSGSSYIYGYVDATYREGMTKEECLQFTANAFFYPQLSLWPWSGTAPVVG

[2] = target: T2, 26S proteasome β5 subunit (Oryctolagus cuniculus, UniProt G1T4Q9); assay type: biochemical, rabbit
T2 sequence (G1T4Q9 1-263): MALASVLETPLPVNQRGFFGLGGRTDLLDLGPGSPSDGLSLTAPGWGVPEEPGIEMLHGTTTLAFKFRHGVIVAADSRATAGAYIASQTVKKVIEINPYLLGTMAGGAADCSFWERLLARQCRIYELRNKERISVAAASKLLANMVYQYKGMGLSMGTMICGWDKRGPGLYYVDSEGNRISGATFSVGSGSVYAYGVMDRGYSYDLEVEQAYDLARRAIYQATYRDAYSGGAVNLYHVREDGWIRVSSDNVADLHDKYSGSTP

[3] = target: T3, 26S proteasome β2 subunit (Oryctolagus cuniculus, UniProt G1SWK8)
T3 sequence (G1SWK8 1-271): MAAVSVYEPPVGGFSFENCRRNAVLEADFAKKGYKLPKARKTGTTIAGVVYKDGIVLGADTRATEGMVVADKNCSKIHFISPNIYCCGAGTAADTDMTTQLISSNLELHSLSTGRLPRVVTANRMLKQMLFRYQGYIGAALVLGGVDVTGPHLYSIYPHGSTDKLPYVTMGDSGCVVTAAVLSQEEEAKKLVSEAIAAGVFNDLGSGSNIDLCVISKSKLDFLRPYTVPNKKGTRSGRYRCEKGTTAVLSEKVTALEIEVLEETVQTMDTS

[4] = target: proteasome β5 subunit (Homo sapiens, UniProt P28074); assay: Competition assay against fluorescent probe MV151; assay type: binding; conditions: HEK-293 lysate
[5] = target: proteasome β1 subunit (Homo sapiens, UniProt P28072); assay: Competition assay against fluorescent probe MV151; assay type: binding; conditions: HEK-293 lysate, between 100 and 250 nM, competition against 9
[6] = target: proteasome β2 subunit (Homo sapiens, UniProt Q99436); assay: Competition assay against fluorescent probe MV151; conditions: HEK-293 lysate

| IC50 [1] [nM] | IC50 [2] [nM] | IC50 [3] [nM] | effect on β1 when β5 is saturated [5] | concentration at which inhibition of β5 is apparent ([4]; concentration series 1 nM to 1 μM, competition against 9) [nM] | effect on β2 when β5 is saturated ([6]; between 100 and 250 nM, competition against 9) | SMILES | concentration at which labeling of the β5 subunit is visible ([4]; direct fluorescent labeling, read-out at 520 nm) [nM] | β2 band in competition assay ([6]; 1 μM inhibitor, Figure 3) |
| --- | --- | --- | --- | --- | --- | --- | --- | --- |
| > 15000 | 130 | > 15000 | – | – | – | CC(C)C[C@H](NC(=O)[C@H](Cc1ccccc1)NC(=O)[C@H](Cc1cc(C(F)(F)F)cc(C(F)(F)F)c1)NC(=O)[C@H](Cc1ccccc1)N=[N+]=[N-])C(=O)[C@@]1(C)CO1 [5b] | – | – |
| 160 | 3 | 11000 | – | – | – | CC(C)C[C@H](NC(=O)[C@H](Cc1cc(C(F)(F)F)cc(C(F)(F)F)c1)NC(=O)c1cnccn1)B1OC2C[C@@H]3C[C@@H](C3(C)C)[C@]2(C)O1 (some centres unmarked) [2b] | – | – |
| > 15000 | – | – | – | – | – | CC(C)C[C@H](NC(=O)[C@H](Cc1ccccc1)NC(=O)[C@H](Cc1ccccc1)NC(=O)[C@H](Cc1ccccc1)N=[N+]=[N-])C(=O)[C@@]1(C)CO1 [compound 3] | – | – |
| > 15000 | – | – | unaffected or even upregulated | 5 | unaffected or even upregulated | CC(C)C[C@H](NC(=O)[C@H](Cc1c(F)c(F)c(F)c(F)c1F)NC(=O)[C@H](Cc1ccccc1)NC(=O)[C@H](Cc1ccccc1)N=[N+]=[N-])C(=O)[C@@]1(C)CO1 [4a] | – | the majority of the corresponding band in Figure 3 is gone |
| > 15000 | 100 | > 15000 | – | – | – | CC(C)C[C@H](NC(=O)[C@H](Cc1cc(C(F)(F)F)cc(C(F)(F)F)c1)NC(=O)[C@H](Cc1ccccc1)NC(=O)[C@H](Cc1ccccc1)N=[N+]=[N-])C(=O)[C@@]1(C)CO1 [4b] | – | – |
| 440 | – | – | – | – | – | CC(C)C[C@H](NC(=O)[C@H](Cc1c(F)c(F)c(F)c(F)c1F)NC(=O)c1cnccn1)B1OC2C[C@@H]3C[C@@H](C3(C)C)[C@]2(C)O1 (some centres unmarked) [2a] | – | – |

| SMILES | IC50 [1] [nM] | IC50 [2] [nM] | IC50 [3] [nM] | effect on β1 when β5 is saturated [5] | concentration at which inhibition of β5 is apparent ([4]; concentration series 1 nM to 1 μM, competition against 9) [nM] | effect on β2 when β5 is saturated ([6]; between 100 and 250 nM, competition against 9) | concentration at which labeling of the β5 subunit is visible ([4]; direct fluorescent labeling, read-out at 520 nm) [nM] | β2 band in competition assay ([6]; 1 μM inhibitor, Figure 3) |
| --- | --- | --- | --- | --- | --- | --- | --- | --- |
| CC1=CC(C)=[N+]2C1=C(CCCCc1cn([C@@H](Cc3ccccc3)C(=O)N[C@@H](Cc3ccccc3)C(=O)N[C@@H](Cc3c(F)c(F)c(F)c(F)c3F)C(=O)N[C@@H](CC(C)C)C(=O)[C@@]3(C)CO3)nn1)c1c(C)cc(C)n1[B-]2(F)F [compound 7] | > 10000 | 300 | > 10000 | – | – | – | 1 | – |
| CC(C)C[C@H](NC(=O)[C@H](Cc1ccccc1)NC(=O)[C@H](Cc1c(F)c(F)c(F)c(F)c1F)NC(=O)[C@H](Cc1ccccc1)N=[N+]=[N-])C(=O)[C@@]1(C)CO1 [5a] | > 15000 | 200 | > 15000 | – | – | – | – | – |
